# Test results published in patent US8748600B2, “Cyclic triazo sodium channel blockers” (University of Greenwich, priority 2009, dated 2014).
# Assays:
# [1] = target: T1, DiHydroFolate Reductase (DHFR) (Rattus norvegicus, UniProt Q920D2); test: Inhibition of binding of [3H]methotrexate to rat liver homogenate supernatant (DHFR); details: read-out: DHFR (% inhibition @ 125 μm)
# T1 construct: from tissue; host or cells: rat liver homogenate, 47,500 x g supernatant
# T1 sequence (Q920D2 1-187): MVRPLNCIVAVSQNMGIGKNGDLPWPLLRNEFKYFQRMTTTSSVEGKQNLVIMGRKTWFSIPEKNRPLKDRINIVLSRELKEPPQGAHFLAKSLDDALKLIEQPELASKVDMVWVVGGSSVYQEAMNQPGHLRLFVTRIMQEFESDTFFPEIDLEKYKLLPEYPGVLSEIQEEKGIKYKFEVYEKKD
# Description: All steps were carried out at 4° (or on ice). Freshly dissected rat liver was dissected into 0.25M ice-cold Sucrose and subsequently homogenised (U-turrax) in 50 mM pH 6.0 phosphate buffer (10 ml/g tissue) containing 15 mM Dithiothreitol. The resulting homogenate was centrifuged @ 47,500×g for 20 min and supernatant (filtered through cotton wool to remove fatty lumps) stored @-80° before use (Rothenberg et al).
# Inhibition of the binding of [^3H]methotrexate to rat liver homogenate supernatant fractions were carried out essentially as described by Arons et al, 1975.
# sodium channel (Nach) = test: Inhibition of binding of [3H]BTX-B to rat forebrain homogenates; details: extrapolated IC50; [3H]BTX-B binding
# Description: Experiments were performed using forebrain (whole brain less cerebellum/medulla) from Male Wistar rats weighing 175-250 g. All efforts were made to reduce the number of animals used and all experiments were carried out in accordance with the UK Animals (Scientific Procedures) Act, 1986 and the European Community Council Directive of 24 Nov. 1986 (86/609/EEC). Following killing of animals by stunning and decapitation, the forebrain (whole brain less cerebellum/medulla) was rapidly dissected and transferred to a weighed tube containing ice-cold 0.25M sucrose.
# Homogenates were prepared by transferring the known weight of forebrain to a cooled tube containing 9 volumes of ice-cold 50 mM pH 7.4 HEPES buffer. The mixture was homogenised @ 4° by 3×5 sec bursts of an Ultra-Turrax™ homogeniser set at maximum speed. The resulting homogenate was centrifuged at 40,000×g (average) at 4° for 15 min and the supernatant discarded. The resulting pellet was resuspended in 9 volumes of fresh ice-cold pH 7.4 buffer (as above), the centrifugation step was repeated and the resulting pellet resuspended in the [^3H]BTX-B binding buffer at a concentration of 20-25 mg wet weight per ml assay buffer.
# Both assays were carried out using 14 ml polypropylene test tubes to which a range of concentrations of the compounds under test were added.
# [^3H]BTX-B binding was carried out using the method described by Catterall et al (1981), except that both bovine serum albumin and TTX were omitted from the incubation medium.
# IC50 values were obtained from radioligand displacement or guanidine flux inhibition curves by plotting log10 concentration vs bound ligand/guanidine uptake according the equation:— y=Rmin+Rsp/{1+exp [−n(x−C)]}
# and • C=IC50 (i.e. concentration required to inhibit 50% of specific binding Hippocampal Slice Assay
SMILES,inhibition at […] [1] [%],IC50 (sodium channel (Nach)) [µM]
Nc1nnc(C2(c3ccccc3)CCCCC2)c(N)n1 [CEN-230],0,23
COc1ccc(C2(c3nnc(N)nc3N)CCCCC2)cc1 [CEN-231],–,1
Nc1nnc(C2(c3ccccc3)CCCC2)c(N)n1 [CEN-232],100,5
COc1ccc(C2(c3nnc(N)nc3N)CCCC2)cc1 [CEN-234],22,3
Nc1nnc(C2(c3ccc(Cl)cc3Cl)CC2)c(N)n1 [CEN-235],63,8
Nc1nnc(C2(c3cccc(F)c3)CCCC2)c(N)n1 [CEN-236],14,4
Cc1ccc(C2(c3nnc(N)nc3N)CCCC2)cc1 [CEN-237],70,< 0.5
Nc1nnc(C2CC2c2ccccc2)c(N)n1 (stereo not drawn) [CEN-238],–,> 190
Cc1ccc(C2(c3nnc(N)nc3N)CCCCC2)cc1 [CEN-239],73,< 0.5
Nc1nnc(C2(c3ccccc3)CC2)c(N)n1 [CEN-240],8,–
Nc1nnc(C(Cc2ccccc2)c2ccccc2)c(N)n1 (stereo not drawn) [CEN-241],90,–
COc1ccc(C2(c3nnc(N)nc3N)CC2)cc1 [CEN-244],0,115
Nc1nnc(-c2cccc(OCc3cccc4ccccc34)c2)c(N)n1 [CEN-245],55,57
Nc1nnc(C(c2ccc(F)cc2)c2ccc(F)cc2)c(N)n1 [CEN-247],0,9
